Measured values taken from patent publication US5840936A, “Aminosterol compounds useful as inhibitors of the sodium/proton exchanger (NHE)” (priority 1995, dated 1998).
“Also recorded” adds a separate entry of the source.

How the values were obtained:
rabbit NHE3 = rabbit NHE3 (Oryctolagus cuniculus, UniProt P26432); assay: NHE3 inhibition, internal pH (BCECF-AM) in transfected PS120 fibroblasts; conditions: 10 μg/ml, acid preloaded
Procedure: Internal pH was measured either following acid loading or in the absence of an acid-loading challenge, with the results shown in FIGS. 1A and 1B.
Specifically, PS120 fibroblasts transfected with rabbit NHE3 were grown in supplemented Dulbecco's-modified Eagle's medium as described by Levine et al., J. Biol. Chem. 268, 1993, 25527-25535. […] For cells not acid-preloaded, the actual internal pH value was monitored as a function of time following addition of squalamine, with the results depicted in FIG. 1B.
PS120 fibroblasts transfected with rabbit NHE3 were grown and acid preloaded by exposure to 40 mM NH4 Cl as described above in conjunction with FIGS. 1A and 1B. Internal cellular pH changes expressed as the rate of pH recovery as a function of restored extracellular sodium ion concentration following exposure to 10 μg/ml of the compound were assayed with the fluorescent dye BCECF-AM as described above.

[1] = Effect on arterial resistance and blood pressure; type: in vivo, rat
Procedure: A 200-g rat was catheterized in the right carotid artery, and the compound was introduced over a ten-second period to a total dosage of 5 mg/kg. Within 30 seconds, the mean arterial pressure had fallen from about 100 mm Hg to about 70 mm Hg, with a marked reduction in pulse pressure from about 40 mm to about 10 mm. […] If cardiac output was basically unaffected, reduction in blood pressure would have resulted principally from a reduction in system resistance.
At that time, 40 μg of noradrenaline was introduced.

[2] = system: Human microvascular endothelial cells; assay: Growth inhibition in vitro, human microvascular endothelial cells; type: cell-based; conditions: 10 μg/ml
Description: (§1) As set forth in Table 7 below, all malignant tumors evaluated in tissue culture, endothelial cells and vascular smooth muscle cells were sensitive to inhibition. Thus, compound 1436 has application in the control of growth factor dependent proliferation of many types of tissue.

[3] = system: Human coronary artery smooth muscle cells; assay: Growth inhibition in vitro, human coronary artery smooth muscle cells; type: cell-based; conditions: 10 μg/ml
Description: as §1

[4] = system: Xenopus tadpoles, stage 59-60; assay: Xenopus tadpole assay; conditions: 10 μg/ml
[5] = system: L1210 lymphoblastic leukemia; assay: Mouse model of L1210 leukemia; conditions: highest dose (10 mg/kg every 3 days i.p.)
Description: C57B mice were inoculated with L1210 lymphoblastic leukemia cells at an inoculum that causes leukemia in 100% of animals.

Xenopus laevis heart = assay: Isolated frog heart, persistence of beating ex vivo; conditions: 10 μg/ml, room temperature, adrenaline 50 μg/ml; control about one hour
Procedure: To determine if compound 1436 has such utility, the following experiment was performed. The heart of a juvenile Xenopus laevis frog was dissected from the living animal. The heart was placed into a Petri dish containing Krebs-Ringer buffer with adrenaline 50 μg/ml, and examined with the naked eye. At room temperature, the heart continued beating in a coordinated fashion (atrial beat followed by ventricular beat) for about one hour. In the presence of 10 μg/ml of compound 1436, spontaneous beating persisted up to 24 hours.

[6] = system: Human colon carcinoma SW948; assay: Growth inhibition in vitro, SW948; type: cell-based; conditions: 10 μg/ml
Description: as §1

ELC = ELC MTT; type: cell-based; conditions: Table II; read-out: ELC MTT, Minimum Effective Concentration
[7] = system: human umbilical venous endothelial cells; assay: Growth inhibition in vitro, human umbilical venous endothelial cells; type: cell-based; conditions: 10 μg/ml
Description: as §1

Human melanoma WM 1617 = assay: Growth inhibition in vitro, WM 1617; type: cell-based; conditions: 10 μg/ml
Description: as §1

[8] = system: Human colon carcinoma HT29; assay: Growth inhibition in vitro, HT29; type: cell-based; conditions: 10 μg/ml
Description: as §1

[9] = system: Human ovarian carcinoma SKOV3; assay: Growth inhibition in vitro, SKOV3; type: cell-based; conditions: 10 μg/ml
Description: as §1

[10] = Effect on growth and weight gain in mice; type: in vivo, C57B mice; conditions: 10 mg/kg QTD i.p., after 6 doses, about 1 month
Procedure: Animals were dosed QTD (i.p.) starting on Day 1. […] Animals receiving 5 mg/kg QTD experienced about a 50% reduction in growth, compared to untreated controls, while animals receiving 1 mg/kg QTD were affected by about 10%. […] They appeared very much like hypophysectamized animals might appear.

[11] = system: chick embryo vitelline capillaries; assay: Chick embryo vitelline capillary regression assay; type: in vivo; parameters: key to Vitelline capillary regression: +: Vascular reactivity; 0: No vascular reactivity; +/-: Equivocal reactivity
Procedure: Using the chick embryo vitelline capillaries assay, compounds were tested for their ability to induce capillary regression. Each compound was applied in 0.1 ml of 15% Ficol 400 and PBS onto the embryo, and vascular regression was assessed after 60 minutes.
The 3-day chick embryo consists of an embryonic disc from which numerous vessels emerge and return, forming a "FIG. 8"-shaped structure--the embryo in the center with vascular loops extending outward over both poles. […] Following a lag period of around 15 minutes, the constriction of continuity between capillary and secondary vessels, generally on the "venous" side, was observed. Continued pulsatile blood flow progressed, resulting in a "swelling" of the blind tube, followed by a pinching off of the remaining connection and formation of an enclosed vascular sac resembling a "blood island." This process progressed until only the largest vessels remained intact.

Lewis lung carcinoma = assay: Growth inhibition in vitro, Lewis lung carcinoma; type: cell-based; conditions: 10 μg/ml
Description: as §1

B16 melanoma = assay: Suppression of B16 melanoma growth in C57B mice; type: in vivo, mouse
Procedure: The growth of B16 melanoma in C57B mice is dependent upon neovascularization.
Using the growth of B16 melanoma cells in C57B mice, a recognized model for the evaluation of inhibitors of angiogenesis on the growth of cancers, the effects of subcutaneous, intraperitoneal and oral administration of squalamine were evaluated.
Animals were implanted with B16 melanoma followed by treatment with compound 1436 or 1256 administered in a combined schedule or separately. […] Thus, a combination of these two compounds achieves a theraputic benefit in tumors dependent on neovascularization that may prevent metastatic spread.

Murine L1210 leukemia = assay: Growth inhibition in vitro, L1210; type: cell-based; conditions: 10 μg/ml
Description: as §1

Murine B16 melanoma = assay: Growth inhibition in vitro, B16; type: cell-based; conditions: 10 μg/ml
Description: as §1

[12] = system: Xenopus tadpoles, stage 59-60; conditions: 10 μg/mL
[13] = system: human coronary artery smooth muscle; assay: Growth of human coronary artery smooth muscle in vitro; type: cell-based
Description: Aminosterols of the invention may also have utility in inhibiting the growth factor mediated proliferation of smooth muscle within the artery. Following coronary angioplasty, reocclusion commonly occurs, secondary to reparative proliferation of the vascular smooth muscle within the wall of the surgically manipulated blood vessel. This process generally takes place over the course of 7-10 days. To evaluate whether an agent could prevent the growth factor mediated proliferation of smooth muscle within the artery, compound 1436 was evaluated in vitro for its effect on the proliferation of human coronary artery smooth muscle. Results for compound 1436 are shown in FIG. 13, and those for squalamine are shown in FIG. 14, with FIG. 15 being a composite logarithmic plot.

[14] = system: bovine pulmonary endothelial cells; assay: Growth inhibition in vitro, bovine pulmonary endothelial cells; type: cell-based; conditions: 10 μg/ml
Description: as §1

[15] = system: PHA-stimulated lymphocytes; assay: Lymphocyte viability in HIV assay; type: cell-based; conditions: 10080 min
Description: Results are tabulated below.

[16] = Fasting blood glucose in mice; type: in vivo, male CD-1 mice
Procedure: To study the effect of steroid administrator or the NHE responsible for secretion of insulin, several of the aminosterols from shark liver were administered to fasting mice. Male CD-1 mice were assigned to one of four treatment groups. Whole blood glucose was tested using glucometer (Lifescan Glucometer II and One Touch test strips). Statistical analysis was via one-way analysis of variance (ANOVA) followed by subsequent Bonferonni's t-test.

rabbit NHE3, sequence (P26432 30-832): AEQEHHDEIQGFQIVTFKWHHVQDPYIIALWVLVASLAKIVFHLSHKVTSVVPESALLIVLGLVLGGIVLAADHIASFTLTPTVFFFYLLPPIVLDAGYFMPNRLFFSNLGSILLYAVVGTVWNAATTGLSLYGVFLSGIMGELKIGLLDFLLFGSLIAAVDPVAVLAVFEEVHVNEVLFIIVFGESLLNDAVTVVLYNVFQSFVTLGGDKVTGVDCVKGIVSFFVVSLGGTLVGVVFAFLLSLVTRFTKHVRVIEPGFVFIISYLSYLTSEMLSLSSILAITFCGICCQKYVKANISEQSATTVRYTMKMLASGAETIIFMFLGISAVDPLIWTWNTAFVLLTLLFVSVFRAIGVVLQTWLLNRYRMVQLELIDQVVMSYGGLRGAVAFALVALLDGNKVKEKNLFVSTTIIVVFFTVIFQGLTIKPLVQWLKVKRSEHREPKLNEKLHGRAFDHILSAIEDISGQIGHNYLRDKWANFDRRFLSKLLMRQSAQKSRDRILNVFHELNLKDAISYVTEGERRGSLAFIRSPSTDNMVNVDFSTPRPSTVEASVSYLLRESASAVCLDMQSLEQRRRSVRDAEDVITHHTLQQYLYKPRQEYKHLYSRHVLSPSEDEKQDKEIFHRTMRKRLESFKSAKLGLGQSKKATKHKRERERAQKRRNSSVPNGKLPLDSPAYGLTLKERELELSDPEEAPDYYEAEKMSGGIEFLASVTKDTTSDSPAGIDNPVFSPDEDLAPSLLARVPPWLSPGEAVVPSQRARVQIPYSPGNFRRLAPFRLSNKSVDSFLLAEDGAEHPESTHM

CC(C)[C@@H](CC[C@@H](C)[C@H]1CC[C@H]2[C@@H]3[C@H](O)C[C@H]4C[C@@H](NCCCNCCCCNCCCN)CC[C@]4(C)[C@H]3CC[C@]12C)OS(=O)(=O)O [Compound 1436]
Inhibition of rabbit NHE3 (rabbit NHE3): found to inhibit rabbit NHE3; also recorded: inhibitor of NHE3
Reversibility of blood pressure effect ([1]; 40 μg of noradrenaline at 30 minutes): readily reversible by standard pharmacological practice
Change of effect over 30 minutes ([1]; 5 mg/kg i.v., followed for 30 minutes): without significant change
Pulse pressure after dosing ([1]; 5 mg/kg i.v., within 30 seconds, from about 40 mm): about 10 mm
Mean arterial pressure after dosing ([1]; 5 mg/kg i.v., within 30 seconds, from about 100 mm Hg): about 70 mm Hg
Inhibited in vitro: Human microvascular endothelial cells [2]: INHIBITED
Inhibited in vitro: Human coronary artery smooth muscle cells [3]: INHIBITED
Tadpole assay, observed effects [4]: common vascular occlusive effect; also recorded: Gradual reduction in overall activity; also recorded: Melanocytes over head and tail began to swell, first exhibiting visibly distinct nuclei, followed by rupture into fragments; also recorded: dramatic disruption of melanocytes over its head, trunk, and tail, along with depression of its nervous system; also recorded: No effects are observed on epithelial cell integrity, vascular flow, erythrocyte volume, tissue integrity, muscle fiber striation, or GI tract activity
Tadpole time to death [4]: about 2 hours
Survival in mice bearing L1210 leukemia [5]: significant prolongation of life
Persistence of spontaneous beating (Xenopus laevis heart): up to 24 hours
Inhibited in vitro: Human colon carcinoma SW948 [6]: INHIBITED
minimal effective concentration (ELC): 16.7 µg/mL
Inhibited in vitro: Human umbilical venous endothelial cells [7]: INHIBITED
Inhibited in vitro: Human melanoma WM 1617 (Human melanoma WM 1617): INHIBITED
Inhibited in vitro: Human colon carcinoma HT29 [8]: INHIBITED
Inhibited in vitro: Human ovarian carcinoma SKOV3 [9]: INHIBITED
Growth suppression [10]: growth was almost completely inhibited
Vitelline capillary regression ([11]; 0.001 μg applied): +/-
Vitelline capillary regression ([11]; 0.01 μg applied): +
Vitelline capillary regression ([11]; 0.1 μg applied): +
Vitelline capillary regression ([11]; 1 μg applied): +
Vitelline capillary regression ([11]; 10 μg applied): +
Effect on chick embryo vessels ([11]; 3- to 5-day chick embryo): vitelline capillary regression with about the same potency as squalamine
Inhibited in vitro: Lewis lung carcinoma (Lewis lung carcinoma): INHIBITED
Impact on tumor volume (B16 melanoma; compound 1436 10 mg/kg/every 3 days): no significant impact on tumor volume
Tumor growth effect of single agent compared with combination (B16 melanoma; squalamine 15 mg/kg/day, compound 1436 alone in a tolerable schedule): Neither administration of squalamine at 15 mg/kg/day nor compound 1436 alone in a tolerable schedule could achieve this effect
Inhibited in vitro: Murine L1210 leukemia (Murine L1210 leukemia): INHIBITED
Inhibited in vitro: Murine B16 melanoma (Murine B16 melanoma): INHIBITED
Tadpole E (epithelial) [12]: ±
Tadpole GI (gastrointestinal) [12]: -
Tadpole M (melanocytes) [12]: +
Tadpole Mus (muscle) [12]: -
Tadpole V (vascular) [12]: +
Concentration maintaining quiescent state without loss of viability [13]: about 11 μg/ml
Suppression of growth of human coronary artery smooth muscle ([13]; in vitro): suppress in vitro the growth of human coronary artery smooth muscle
Inhibited in vitro: Bovine pulmonary endothelial cells [14]: INHIBITED
% Viability ([15]; 0.5 μM): 91%
% Viability ([15]; 10 μM): 95%
Lymphocyte viability ([15]; 10 μg/ml): 95%
% Viability ([15]; 20 μM): 90.1%
Hyperglycemia ([16]; i.v., 1436 in D5W, 1437 in water): caused hyperglycemia in mice
Fasting Blood Glucose Mean ± SEM ([16]; total dose 20 mg/kg i.v. (2 × 10 mg/kg), 30 min. after 2d dose): 105 ± 8.0 mg/dL
